Assay results: ChEMBL document CHEMBL1149715, “Inhibition of the Mycobacterium tuberculosis enoyl acyl carrier protein reductase InhA by arylamides” (Bioorg Med Chem, 2007)
≈ marks a conversion by molar mass, not a printed value.

What follows are compounds tested against T1, Enoyl-[acyl-carrier-protein] reductase [NADH] (Mycobacterium tuberculosis, UniProt P9WGR1).
T1 sequence (P9WGR1 whole entry): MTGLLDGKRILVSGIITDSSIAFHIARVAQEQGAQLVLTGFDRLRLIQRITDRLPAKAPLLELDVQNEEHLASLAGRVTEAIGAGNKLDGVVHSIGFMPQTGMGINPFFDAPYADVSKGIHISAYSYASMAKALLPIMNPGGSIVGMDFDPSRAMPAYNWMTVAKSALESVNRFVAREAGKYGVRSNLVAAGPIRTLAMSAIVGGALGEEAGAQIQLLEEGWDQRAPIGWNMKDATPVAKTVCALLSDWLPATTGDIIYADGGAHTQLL
Description: Inhibition of Mycobacterium tuberculosis InhA

Structure (SMILES)	IC50
Cc1ccc(C(=O)N2CCN(c3ccccc3)CC2)cc1	16.6 µM
Cc1cccc(C(=O)N2CCN(c3cccc(Cl)c3)CC2)c1	9.43 µM
Cc1ccc(C(=O)N2CCN(c3cccc(Cl)c3)CC2)cc1C	0.99 µM
O=C(c1ccc(F)cc1)N1CCN(c2cccc(Cl)c2)CC1	9.74 µM
Cc1ccc(C(=O)N2CCN(c3cccc(C(F)(F)F)c3)CC2)cc1C	1.85 µM
CC(C)(C)c1ccc(C(=O)N2CCN(c3cccc(Cl)c3)CC2)cc1	> 100 µM
CC(C)(C)c1ccc(C(=O)N2CCN(c3cccc(C(F)(F)F)c3)CC2)cc1	> 100 µM
O=C(c1cccc(Cl)c1)N1CCN(c2cccc(Cl)c2)CC1	6.73 µM
O=C(c1ccc(Cl)c(Cl)c1)N1CCN(c2ccccc2)CC1	17.6 µM
O=C(c1ccccc1)N1CCN(Cc2ccccc2)CC1	31.5 µM
O=C(c1cccc(Cl)c1)N1CCC(Cc2ccccc2)CC1	7.74 µM
Cc1ccc(C(=O)N2CCC(Cc3ccccc3)CC2)cc1	5.16 µM
Cc1cccc(C(=O)N2CCC(Cc3ccccc3)CC2)c1	7.39 µM
O=C(c1ccccc1)N1CCN(C2c3ccccc3-c3ccccc32)CC1	0.09 µM
O=C(c1ccccc1)N1CCN(c2ccccc2)CC1	38.9 µM
O=C(c1ccc2[nH]ccc2c1)N1CCN(C(c2ccc(F)cc2)c2ccc(F)cc2)CC1	1.04 µM
Cc1ccc(C(=O)N2CCN(C(c3ccc(F)cc3)c3ccc(F)cc3)CC2)cc1	1.89 µM
O=C(c1ccccc1)N1CCN(C(c2ccc(F)cc2)c2ccc(F)cc2)CC1	2.04 µM
Cc1ccc(C(=O)N2CCN(C3c4ccccc4-c4ccccc43)CC2)cc1	0.4 µM
CC(C)c1ccc(C(=O)N2CCN(c3cccc(Cl)c3)CC2)cc1	> 100 µM
O=C(c1ccccc1F)N1CCN(c2cccc(Cl)c2)CC1	13.9 µM
Cc1ccc(C(=O)N2CCN(c3cccc(C(F)(F)F)c3)CC2)cc1	6.26 µM
Cc1cccc(C(=O)N2CCN(c3ccc([N+](=O)[O-])cc3)CC2)c1	15.5 µM
Cc1ccc(N2CCN(C(=O)c3ccc(C(C)(C)C)cc3)CC2)cc1Cl	> 100 µM
O=C(c1ccc(Cl)c(Cl)c1)N1CCN(c2cccc(Cl)c2)CC1	6.05 µM
Cc1ccc(C(=O)N2CCN(c3cccc(Cl)c3)CC2)cc1	3.07 µM
O=C(c1ccccc1F)N1CCC(Cc2ccccc2)CC1	14.1 µM

What follows are compounds tested on Mycobacterium tuberculosis (assay: Antibacterial activity against Mycobacterium tuberculosis H37Rv by Alamar blue assay).
Assay type: functional

Structure (SMILES)	MIC
O=C(c1ccc2[nH]ccc2c1)N1CCN(C(c2ccc(F)cc2)c2ccc(F)cc2)CC1	62.5 µM (≈ 27 µg/mL)
O=C(c1ccccc1)N1CCN(C(c2ccc(F)cc2)c2ccc(F)cc2)CC1	125 µM (≈ 49.1 µg/mL)
Cc1cccc(C(=O)N2CCN(c3ccc([N+](=O)[O-])cc3)CC2)c1	125 µM (≈ 40.7 µg/mL)
